Laboratory results taken from patent US9629892B2, “Treatment of penetrative injury to the brain” (NoNO Inc., priority 2010, dated 2017).
Entries after “also recorded” stand apart in the source; their conditions may differ.

How the values were obtained:
[1] = target: binding of NMDAR 2B to PSD95 (Homo sapiens, UniProt P78352); details: reported by Bach; cited from earlier work
PBBI rats [2] = assay: Neuroscore after PBBI injury; type: in vivo, rat; details: Study 1, 0.5 mg/kg i.v. 8 minute infusion 30 minutes after PBBI, 72 hours post-PBBI, vs PBBI/veh
Procedure: (§1) Body weight was assessed at time 0 (baseline), 24, 72 h and 7 days post injury. Body temperature was assessed at time 0, 30 min (prior to treatment), 2, 24, 72 h, and 7 days post injury. Neuroscore was assessed at 0, 30 min (prior to treatment), 24, 72 h, 7 days post injury. Balance beam was assessed at time 0, 3, and 7 days post injury. Rotarod was assessed at time 0 and 7 days post injury.
Columns=means; error bars=SEM; *p<0.05 compared to PBBI; †p<0.05 compared to 0.05 mg/kg Tat-NR2B9c; #p<0.05 compared to 0.275 mg/kg Tat-NR2B9c.

PBBI rats [3] = assay: Balance beam footfaults after PBBI injury; type: in vivo, rat; details: for footfaults per beam segment contralateral to site of injury / rats unable to cross the beam (assigned maximal footfault scores): 3 days post-PBBI; for rats unable to cross the beam: 7 days post-PBBI
PBBI rats [4] = assay: Fixed-speed rotarod task after PBBI injury; type: in vivo, rat; details: for rotarod task recovery: Study 1, 0.50 mg/kg, 7 days post-PBBI
Procedure: as §1
FIGS. 3A and B show dose-response studies on a rotarod. Rats were trained to criteria on the fixed-speed version of the rotarod task prior to PBBI and tested at 7 days post-PBBI. […] Columns=means; error bars=SEM; *p<0.05 compared to PBBI

PBBI rats [5] = assay: Morris Water Maze (MWM) task after PBBI; type: in vivo, rat; details: multiple dosing (four injections at 30 minutes, 24, 48 and 72 hours post-PBBI; 0.5 and 5 mg/kg); at 5 or more days
Procedure: FIGS. 6A-D show the effects of multiple dosing regimes on neuroscore, rotarod and MWM performance Animals were given four injections of Tat-NR2B9c post-PBBI at 30 minutes, 24 hours, 48 hours and 72 hours.

PBBI rats [6] = assay: Body temperature after PBBI and dosing; type: in vivo, rat; details: approximately 90 minutes following PBBI (60 minutes following dosing)
PBBI rats [7] = assay: PBBI neuropathology: lesion volume in brain sections (H&E, TTC staining); details: for overall (total) lesion volume: Study 1, H&E stained sections, 7 days
Procedure: Male Sprague-Dawley rats (250-300 g) were subjected to a simulated ballistic wound to the right frontal hemisphere implemented by an inflatable penetrating probe. Three levels of injury severity were compared to control animals. Neurological and physiological outcome was assessed over a 3-day recovery period and brain tissue collected at 72 h for histopathological evaluation.
Tat-NR2B9c was administered i.v. in the jugular vein by an 8 minute infusion 30 minutes after inducing brain injury. Rats were sacrificed for histologic examination after 7 days. The dose of Tat-NR2B9c was Study I: 0.5 and 5.0 mg/ml/kg and Study II: 0.05, 0.275, and 0.5 mg/ml/kg. The rats were subject to the following treatments in Study I and II (sham=rat not subject to ballistic injury, PBBI=penetrative ballistic brain injury, veh=vehicle).
Study 1 evaluated two concentrations of Tat-NR2B9c (0.5 mg/kg and 5.0 mg/kg) (n=10 each group) with a survival period of 1 week. […] Behavioral and histological endpoints for both experiments included neurological assessments on neuroscore, balance beam, and rotarod tests, and lesion reconstruction on H&E stained sections.
As with the previous experiments, Tat-NR2B9c was administered as a slow bolus (8 minute) 30 minutes after PBBI.

cerebral ischemia = details: reported in WO 2008/014917; cited from earlier work

Sequence of binding of NMDAR 2B to PSD95 (P78352 whole entry, the tested form may be a part): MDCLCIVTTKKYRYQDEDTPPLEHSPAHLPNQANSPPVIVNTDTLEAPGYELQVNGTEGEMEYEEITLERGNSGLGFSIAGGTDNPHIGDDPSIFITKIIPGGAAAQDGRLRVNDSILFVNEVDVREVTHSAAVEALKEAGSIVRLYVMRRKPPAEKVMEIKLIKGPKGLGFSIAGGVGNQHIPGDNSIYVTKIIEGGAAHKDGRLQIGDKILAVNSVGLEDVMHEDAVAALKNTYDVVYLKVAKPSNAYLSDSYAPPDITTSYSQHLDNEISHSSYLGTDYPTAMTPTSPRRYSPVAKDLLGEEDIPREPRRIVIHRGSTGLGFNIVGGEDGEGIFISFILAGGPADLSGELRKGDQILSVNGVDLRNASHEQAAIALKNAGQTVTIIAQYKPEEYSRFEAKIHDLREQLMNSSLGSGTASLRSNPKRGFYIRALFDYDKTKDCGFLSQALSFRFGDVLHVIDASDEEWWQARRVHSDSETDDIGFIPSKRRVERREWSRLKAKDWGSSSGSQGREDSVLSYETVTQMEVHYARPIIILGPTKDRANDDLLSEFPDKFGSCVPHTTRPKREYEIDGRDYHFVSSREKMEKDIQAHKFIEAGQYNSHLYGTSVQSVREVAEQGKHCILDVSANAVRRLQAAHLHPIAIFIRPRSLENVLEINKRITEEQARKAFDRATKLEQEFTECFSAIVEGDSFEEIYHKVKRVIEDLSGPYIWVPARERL

Substance: IESDV (listed as Homo sapiens)
- inhibition of binding of NMDAR 2B to PSD95 [1]: effective in inhibiting binding of NMDAR 2B to PSD95

Substance: YGRKKRRQRRRKLSSIESDV [Tat-NR2B9c]
- neuroscore (PBBI-induced neurological deficits) (PBBI rats [2]): significant, reduction in PBBI-induced neurological deficits; also recorded: significantly improved neuroscore
- footfaults per beam segment contralateral to site of injury (PBBI rats [3]; Study 1, 0.5 mg/kg, vs PBBI rats): made significantly fewer foot faults than the PBBI rats
- footfaults per beam segment contralateral to site of injury (PBBI rats [3]; Study 1, 5.0 mg/kg, vs PBBI rats): made significantly fewer foot faults than the PBBI rats
- rats unable to cross the beam (assigned maximal footfault scores) (PBBI rats [3]; Study 1, high-dose, of 10 animals per group): two
- rats unable to cross the beam (PBBI rats [3]; Study 1, high-dose): one
- rats unable to cross the beam (assigned maximal footfault scores) (PBBI rats [3]; Study 1, low-dose, of 10 animals per group): two
- footfaults per beam segment contralateral to site of injury (PBBI rats [3]; Study 2, 0.275 mg/kg, narrowest beam segment, vs PBBI animals): made fewer footfaults than the PBBI animals
- footfaults per beam segment contralateral to site of injury (PBBI rats [3]; Study 2, 0.50 mg/kg, narrowest beam segment, vs PBBI animals): made fewer footfaults than the PBBI animals
- rats unable to cross the beam (assigned maximal footfault scores) (PBBI rats [3]; Study 2, high-dose, of 10-11 animals per group): one
- rats unable to cross the beam (assigned maximal footfault scores) (PBBI rats [3]; Study 2, low-dose, of 10-11 animals per group): three
- rats unable to cross the beam (PBBI rats [3]; Study 2, low-dose): one
- rats unable to cross the beam (assigned maximal footfault scores) (PBBI rats [3]; Study 2, medium-dose, of 10-11 animals per group): one
- mean rotarod latencies across speeds relative to vehicle-treated PBBI rats (PBBI rats [4]; 20 mg/kg single slow bolus 30 minutes after PBBI): > 2 fold
- mean rotarod latency across speeds (PBBI rats [4]; 20 mg/kg, p<0.05 vs PBBI/veh): 29 ± 3 s
- rotarod performance (PBBI rats [4]; Study 1 (FIG. 3A), 0.5 mg/kg, summary statement): significantly improved
- rotarod task recovery (PBBI rats [4]; higher speeds (20-25 rpm)): but not at higher speeds
- rotarod task recovery (PBBI rats [4]; two lower speeds (10-15 rpm)): promoted significant recovery (to SHAM levels)
- MWM performance (PBBI rats [5]): possibly an improvement in the MWM performance
- hypothermic effect (measured in the rectum) (PBBI rats [6]): about 2 degrees C.
- stability of lyophilized composition (lyophilized at 1-50 mg/ml in normal saline, with or without excipients): stable at −20 °C or at room temperature
- period of stability (insignificant degradation or aggregation of the peptide) (peptide in normal saline at 10-30 mg/ml, stored frozen): two
- total lesion volume (PBBI rats [7]; 20 mg/kg, TTC staining, p<0.05 vs PBBI/veh): 37±4 mm^3
- reduction in total lesion volume (PBBI rats [7]; 20 mg/kg, TTC staining, vs PBBI/veh): 33%
- overall (total) lesion volume (PBBI rats [7]; 0.5 mg/kg): did not significantly reduce overall lesion volume; also recorded: did not reach a significant neuroprotective effect on total lesion volume
- overall (total) lesion volume (PBBI rats [7]; 5.0 mg/kg): did not significantly reduce overall lesion volume; also recorded: did not reach a significant neuroprotective effect on total lesion volume

Substance: vdseissllurrqrrkkrgyin [retro-inverso analog of Tat-NR2B9c]
- inhibition of cerebral ischemia (cerebral ischemia): effective inhibiting cerebral ischemia
